From US12077503B2, “Substituted cyclic amides and their use as herbicides” (FMC CORPORATION, priority 2015, dated 2024)

Assays:
Format in all cases: in vivo
[1] = tested on: barnyardgrass (Echinochloa crus-galli); assay: Test G Pre-Emergence Protocol; conditions: Echinochloa crus-galli, pre-emergence, 312 h, evaluated after 13 days; for pest or weed control at 15.625 g/ha: 15.625 g ai/ha, read-out: Barnyard grass damage rating (100=total damage to plant; 0=no damage to plant); for pest or weed control at 62.5 g/ha: 62.5 g ai/ha, 100=total damage to plant, 0=no damage to plant, read-out: plant damage rating, Barnyardgrass; for pest or weed control at 250 g/ha: 250 g ai/ha, read-out: Barnyardgrass damage rating (100=total damage to plant; 0=no damage to plant)
Summary of the method: (§1)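 Visual injury (0–100) at day 13 after a single pre-emergence spray. Rates: 15.625, 62.5, 250 g/ha in acetone–water 50:50 with 0.5% Tween 20. Growth conditions: 24/16° C, 14 h light, 65% humidity.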

corn (Zea mays) [2] = assay: Test G Pre-Emergence Protocol; conditions: Zea mays, pre-emergence, 312 h, evaluated after 13 days; for plant injury at 15.625 g/ha: 15.625 g ai/ha; for plant injury at 15.625 g/ha / plant injury at 250 g/ha: read-out: Corn damage rating (100=total damage to plant; 0=no damage to plant); for plant injury at 62.5 g/ha: 62.5 g ai/ha, 100=total damage to plant, 0=no damage to plant, read-out: plant damage rating, Corn; for plant injury at 250 g/ha: 250 g ai/ha
Summary of the method: as §1

[3] = tested on: giant foxtail (Setaria faberi); assay: Test G Pre-Emergence Protocol; conditions: Setaria faberi, pre-emergence, 312 h, evaluated after 13 days; for pest or weed control at 15.625 g/ha: 15.625 g ai/ha; for pest or weed control at 15.625 g/ha / pest or weed control at 250 g/ha: read-out: Foxtail, Giant damage rating (100=total damage to plant; 0=no damage to plant); for pest or weed control at 62.5 g/ha: 62.5 g ai/ha, 100=total damage to plant, 0=no damage to plant, read-out: plant damage rating, Foxtail, Giant; for pest or weed control at 250 g/ha: 250 g ai/ha
Summary of the method: as §1

[4] = tested on: ivy-leaved morning glory (Ipomoea hederacea); assay: Test G Pre-Emergence Protocol; conditions: Ipomoea, pre-emergence, 312 h, evaluated after 13 days; for pest or weed control at 15.625 g/ha: 15.625 g ai/ha, read-out: Morning-glory, Ivy-leaved damage rating (100=total damage to plant; 0=no damage to plant); for pest or weed control at 62.5 g/ha: 62.5 g ai/ha, 100=total damage to plant, 0=no damage to plant, read-out: plant damage rating, Morningglory, Ivy-leaved; for pest or weed control at 250 g/ha: 250 g ai/ha, read-out: Morningglory, Ivy-leaved damage rating (100=total damage to plant; 0=no damage to plant)
Summary of the method: as §1

[5] = tested on: redroot pigweed (Amaranthus retroflexus); assay: Test G Pre-Emergence Protocol; conditions: Amaranthus retroflexus, pre-emergence, 312 h, evaluated after 13 days; for pest or weed control at 15.625 g/ha: 15.625 g ai/ha; for pest or weed control at 15.625 g/ha / pest or weed control at 250 g/ha: read-out: Pigweed, Redroot damage rating (100=total damage to plant; 0=no damage to plant); for pest or weed control at 62.5 g/ha: 62.5 g ai/ha, 100=total damage to plant, 0=no damage to plant, read-out: plant damage rating, Pigweed, Redroot; for pest or weed control at 250 g/ha: 250 g ai/ha
Summary of the method: as §1

[6] = tested on: velvetleaf (Abutilon theophrasti); assay: Test G Pre-Emergence Protocol; conditions: Abutilon theophrasti, pre-emergence, 312 h, evaluated after 13 days; for pest or weed control at 15.625 g/ha: 15.625 g ai/ha; for pest or weed control at 15.625 g/ha / pest or weed control at 250 g/ha: read-out: Velvetleaf damage rating (100=total damage to plant; 0=no damage to plant); for pest or weed control at 62.5 g/ha: 62.5 g ai/ha, 100=total damage to plant, 0=no damage to plant, read-out: plant damage rating, Velvetleaf; for pest or weed control at 250 g/ha: 250 g ai/ha
Summary of the method: as §1

[7] = tested on: barnyardgrass (Echinochloa crus-galli); assay: Test G Post-Emergence Protocol; conditions: Echinochloa crus-galli, post-emergence, 312 h; for pest or weed control at 15.625 g/ha: 15.625 g ai/ha, evaluated after 13 days (100=total damage to plant; 0=no damage to plant), read-out: Barnyardgrass damage rating; for pest or weed control at 62.5 g/ha: 62.5 g ai/ha, read-out: Barnyardgrass damage rating (100=total damage to plant; 0=no damage to plant); for pest or weed control at 62.5 g/ha / pest or weed control at 250 g/ha: evaluated after 13 days; for pest or weed control at 250 g/ha: 250 g ai/ha, read-out: damage to plant, Barnyardgrass (100=total damage to plant; 0=no damage to plant)
Summary of the method: (§2)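 Pot-grown seedlings, 8 days old, raised in a glasshouse at 24/16 °C day/night with 14 h light and 65% humidity, were sprayed post-emergence with test compound in acetone/water (50:50) plus 0.5% Tween 20 at 15.625, 62.5 or 250 g/ha. Damage was scored visually 13 days later on a 0–100 scale (100 = total damage).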

corn (Zea mays) [8] = assay: Test G Post-Emergence Protocol; conditions: Zea mays, post-emergence, 312 h; for plant injury at 15.625 g/ha: 15.625 g ai/ha, evaluated after 13 days (100=total damage to plant; 0=no damage to plant), read-out: Corn damage rating; for plant injury at 62.5 g/ha: 62.5 g ai/ha, read-out: Corn damage rating (100=total damage to plant; 0=no damage to plant); for plant injury at 62.5 g/ha / plant injury at 250 g/ha: evaluated after 13 days; for plant injury at 250 g/ha: 250 g ai/ha, read-out: damage to plant, Corn (100=total damage to plant; 0=no damage to plant)
Summary of the method: as §2

[9] = tested on: giant foxtail (Setaria faberi); assay: Test G Post-Emergence Protocol; conditions: Setaria faberi, post-emergence, 312 h; for pest or weed control at 15.625 g/ha: 15.625 g ai/ha, evaluated after 13 days (100=total damage to plant; 0=no damage to plant), read-out: Foxtail, Giant damage rating; for pest or weed control at 62.5 g/ha: 62.5 g ai/ha, read-out: Foxtail, Giant damage rating (100=total damage to plant; 0=no damage to plant); for pest or weed control at 62.5 g/ha / pest or weed control at 250 g/ha: evaluated after 13 days; for pest or weed control at 250 g/ha: 250 g ai/ha, read-out: damage to plant, Foxtail, Giant (100=total damage to plant; 0=no damage to plant)
Summary of the method: as §2

[10] = tested on: ivy-leaved morning glory (Ipomoea hederacea); assay: Test G Post-Emergence Protocol; conditions: Ipomoea, post-emergence, 312 h; for pest or weed control at 15.625 g/ha: 15.625 g ai/ha, evaluated after 13 days (100=total damage to plant; 0=no damage to plant), read-out: Morningglory, Ivy-leaved damage rating; for pest or weed control at 62.5 g/ha: 62.5 g ai/ha, read-out: Morningglory, Ivy-leaved damage rating (100=total damage to plant; 0=no damage to plant); for pest or weed control at 62.5 g/ha / pest or weed control at 250 g/ha: evaluated after 13 days; for pest or weed control at 250 g/ha: 250 g ai/ha, read-out: damage to plant, Morningglory, Ivy-leaved (100=total damage to plant; 0=no damage to plant)
Summary of the method: as §2

[11] = tested on: redroot pigweed (Amaranthus retroflexus); assay: Test G Post-Emergence Protocol; conditions: Amaranthus retroflexus, post-emergence, 312 h; for pest or weed control at 15.625 g/ha: 15.625 g ai/ha, evaluated after 13 days (100=total damage to plant; 0=no damage to plant), read-out: Pigweed, Redroot damage rating; for pest or weed control at 62.5 g/ha: 62.5 g ai/ha, read-out: Pigweed, Redroot damage rating (100=total damage to plant; 0=no damage to plant); for pest or weed control at 62.5 g/ha / pest or weed control at 250 g/ha: evaluated after 13 days; for pest or weed control at 250 g/ha: 250 g ai/ha, read-out: damage to plant, Pigweed, Redroot (100=total damage to plant; 0=no damage to plant)
Summary of the method: as §2

[12] = tested on: velvetleaf (Abutilon theophrasti); assay: Test G Post-Emergence Protocol; conditions: Abutilon theophrasti, post-emergence, 312 h; for pest or weed control at 15.625 g/ha: 15.625 g ai/ha, evaluated after 13 days (100=total damage to plant; 0=no damage to plant), read-out: Velvetleaf damage rating; for pest or weed control at 62.5 g/ha: 62.5 g ai/ha, read-out: Velvetleaf damage rating (100=total damage to plant; 0=no damage to plant); for pest or weed control at 62.5 g/ha / pest or weed control at 250 g/ha: evaluated after 13 days; for pest or weed control at 250 g/ha: 250 g ai/ha, read-out: damage to plant, Velvetleaf (100=total damage to plant; 0=no damage to plant)
Summary of the method: as §2

CN1C[C@@H](c2ccc(C(F)(F)F)cc2)[C@H](C(=O)Nc2ncnn2C)C1=O (racemic) [Compound 1643]
0%: pest or weed control at 15.625 g/ha [1] | pest or weed control at 62.5 g/ha [1] | pest or weed control at 250 g/ha [1] | plant injury at 15.625 g/ha (corn (Zea mays) [2]) | plant injury at 62.5 g/ha (corn (Zea mays) [2]) | plant injury at 250 g/ha (corn (Zea mays) [2]) | pest or weed control at 15.625 g/ha [3] | pest or weed control at 62.5 g/ha [3] | pest or weed control at 250 g/ha [3] | pest or weed control at 15.625 g/ha [4] | pest or weed control at 62.5 g/ha [4] | pest or weed control at 250 g/ha [4] | pest or weed control at 15.625 g/ha [5] | pest or weed control at 62.5 g/ha [5] | pest or weed control at 250 g/ha [5] | pest or weed control at 15.625 g/ha [6] | pest or weed control at 62.5 g/ha [6] | pest or weed control at 250 g/ha [6] | pest or weed control at 15.625 g/ha [7] | pest or weed control at 62.5 g/ha [7] | pest or weed control at 250 g/ha [7] | plant injury at 15.625 g/ha (corn (Zea mays) [8]) | plant injury at 62.5 g/ha (corn (Zea mays) [8]) | plant injury at 250 g/ha (corn (Zea mays) [8]) | pest or weed control at 15.625 g/ha [9] | pest or weed control at 62.5 g/ha [9] | pest or weed control at 250 g/ha [9] | pest or weed control at 15.625 g/ha [10] | pest or weed control at 62.5 g/ha [10] | pest or weed control at 250 g/ha [10] | pest or weed control at 15.625 g/ha [11] | pest or weed control at 62.5 g/ha [11] | pest or weed control at 250 g/ha [11] | pest or weed control at 15.625 g/ha [12] | pest or weed control at 62.5 g/ha [12] | pest or weed control at 250 g/ha [12]

CN1C[C@@H](c2ccc(C(F)(F)F)cc2)[C@H](C(=O)Nc2cc(C(F)(F)F)no2)C1=O (racemic) [Compound 1511]
0%: pest or weed control at 15.625 g/ha [1] | pest or weed control at 62.5 g/ha [1] | pest or weed control at 250 g/ha [1] | plant injury at 15.625 g/ha (corn (Zea mays) [2]) | plant injury at 62.5 g/ha (corn (Zea mays) [2]) | plant injury at 250 g/ha (corn (Zea mays) [2]) | pest or weed control at 15.625 g/ha [3] | pest or weed control at 62.5 g/ha [3] | pest or weed control at 250 g/ha [3] | pest or weed control at 15.625 g/ha [4] | pest or weed control at 62.5 g/ha [4] | pest or weed control at 250 g/ha [4] | pest or weed control at 15.625 g/ha [5] | pest or weed control at 62.5 g/ha [5] | pest or weed control at 250 g/ha [5] | pest or weed control at 15.625 g/ha [6] | pest or weed control at 62.5 g/ha [6] | pest or weed control at 250 g/ha [6] | pest or weed control at 15.625 g/ha [7] | pest or weed control at 62.5 g/ha [7] | pest or weed control at 250 g/ha [7] | plant injury at 15.625 g/ha (corn (Zea mays) [8]) | plant injury at 62.5 g/ha (corn (Zea mays) [8]) | plant injury at 250 g/ha (corn (Zea mays) [8]) | pest or weed control at 15.625 g/ha [9] | pest or weed control at 62.5 g/ha [9] | pest or weed control at 250 g/ha [9] | pest or weed control at 15.625 g/ha [10] | pest or weed control at 62.5 g/ha [10] | pest or weed control at 250 g/ha [10] | pest or weed control at 15.625 g/ha [11] | pest or weed control at 62.5 g/ha [11] | pest or weed control at 250 g/ha [11] | pest or weed control at 15.625 g/ha [12] | pest or weed control at 62.5 g/ha [12] | pest or weed control at 250 g/ha [12]
